Test system: 188146-221-R-J1-PDC complex spheroid viability
Experiment: Anticancer human tumor 188146-221-R-J1-PDC patient-derived colon adenocarcinoma cell line growth inhibition [POLQ]
Details: for IC50: curve of first compound; for viability, T/C: stronger effect = lower value
Summary of the method: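 Patient-derived tumour cells were co-cultured with HUVEC and mesenchymal stem cells as multicellular spheroids at 37 °C. They were treated with POLQ inhibitors (novobiocin, ART-558, RP6685) alone or combined with other agents. Top concentrations were at or near clinical Cmax (otherwise 10 microM; SN-38 at 1 microM), decreasing in half-log steps.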
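Further: spheroids exposed to compounds for seven days.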
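Wherever viability, T/C is given: 100% = DMSO vehicle control viability.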

COc1cccc(OCCCN)c1-c1cc(Nc2cnc(C#N)cn2)n[nH]1 + COC1C(OC(N)=O)C(O)C(Oc2ccc3c(O)c(NC(=O)c4ccc(O)c(CC=C(C)C)c4)c(=O)oc3c2C)OC1(C)C
IC50 (second compound 0.0316 µM): 28.7 nM
IC50 (second compound 0.1 µM): 35 nM
IC50 (second compound 0.316 µM): 39.4 nM
IC50 (second compound 1 µM): 30.5 nM
IC50 (second compound 3.16 µM): 27.6 nM
IC50 (second compound 10 µM): 22.2 nM
viability, T/C (second compound 0.0316 µM, first compound 0.00316 µM): 105%
viability, T/C (second compound 0.0316 µM, first compound 0.01 µM): 77.3%
viability, T/C (second compound 0.0316 µM, first compound 0.0316 µM): 51.3%
viability, T/C (second compound 0.0316 µM, first compound 0.1 µM): 20.1%
viability, T/C (second compound 0.0316 µM, first compound 0.316 µM): 13%
viability, T/C (second compound 0.0316 µM, first compound 1 µM): 10.6%
viability, T/C (second compound 0.1 µM, first compound 0.00316 µM): 107%
viability, T/C (second compound 0.1 µM, first compound 0.01 µM): 96.6%
viability, T/C (second compound 0.1 µM, first compound 0.0316 µM): 51.9%
viability, T/C (second compound 0.1 µM, first compound 0.1 µM): 20.7%
viability, T/C (second compound 0.1 µM, first compound 0.316 µM): 12.7%
viability, T/C (second compound 0.1 µM, first compound 1 µM): 9.49%
viability, T/C (second compound 0.316 µM, first compound 0.00316 µM): 97%
viability, T/C (second compound 0.316 µM, first compound 0.01 µM): 80.6%
viability, T/C (second compound 0.316 µM, first compound 0.0316 µM): 60.2%
viability, T/C (second compound 0.316 µM, first compound 0.1 µM): 18%
viability, T/C (second compound 0.316 µM, first compound 0.316 µM): 10.6%
viability, T/C (second compound 0.316 µM, first compound 1 µM): 9.85%
viability, T/C (second compound 1 µM, first compound 0.00316 µM): 106%
viability, T/C (second compound 1 µM, first compound 0.01 µM): 90.1%
viability, T/C (second compound 1 µM, first compound 0.0316 µM): 47.6%
viability, T/C (second compound 1 µM, first compound 0.1 µM): 21%
viability, T/C (second compound 1 µM, first compound 0.316 µM): 12%
viability, T/C (second compound 1 µM, first compound 1 µM): 9.09%
viability, T/C (second compound 3.16 µM, first compound 0.00316 µM): 89.5%
viability, T/C (second compound 3.16 µM, first compound 0.01 µM): 79.8%
viability, T/C (second compound 3.16 µM, first compound 0.0316 µM): 45.8%
viability, T/C (second compound 3.16 µM, first compound 0.1 µM): 18.4%
viability, T/C (second compound 3.16 µM, first compound 0.316 µM): 12.5%
viability, T/C (second compound 3.16 µM, first compound 1 µM): 9.13%
viability, T/C (second compound 10 µM, first compound 0.00316 µM): 103%
viability, T/C (second compound 10 µM, first compound 0.01 µM): 83.1%
viability, T/C (second compound 10 µM, first compound 0.0316 µM): 35.1%
viability, T/C (second compound 10 µM, first compound 0.1 µM): 15.2%
viability, T/C (second compound 10 µM, first compound 0.316 µM): 11.4%
viability, T/C (second compound 10 µM, first compound 1 µM): 9.97%
